Tests used:
Test in all cases: Microplate antibacterial assay (optical density at 540 nm)
Type in all cases: cell-based
[1] = test system: Streptococcus mutans ACM 969; settings: lowest concentration giving 100% inhibition, 37° C., growth extended to 44 h
Method: (§1) Bacterial strains and growth conditions: Test organisms used in the assay were Staphylococcus aureus strain 6571 (NCTC—National Collection of Type Cultures, Health Protection Agency Centre for Infection, London, UK), Streptococcus mutans ACM 969 and Proteus vulgaris ACM 4730, were supplied by the Australian Collection of Microorganisms (ACM), University of Queensland. The test organisms were grown for 24 h in Tryptone Soya Yeast Extract Broth (TSYEB) (Oxoid CM 129B, Basingstoke, UK), 30 g/L; yeast extract (Oxoid CM19), 6 g/L. The inoculum was quantified by measuring the optical density (absorbance) at 540 nm and adjusted to 0.5 absorbance with TSYEB.
(§2) Preparation and dilution of bacterial strains: An inoculum was prepared by serially diluting (1:1) the overnight culture of the test organisms in TSYEB broth 22 times. The dilutions from 11-22 were used on the 96 well microlitre plate. After the dilutions were made the lowest dilution was plated on Plate Count Agar (Oxoid CM0463) for all the test organisms to confirm the bacterial count.
(§3) Preparation of Polyphenol Powder from Molasses: the Polyphenol Powder from Molasses (0.1 g) was dissolved in 10 ml of TSYEB. This solution was diluted in TSYEB starting at a concentration of 1% (w/v) and diluted to 0.0005% (w/v).
(§4) Preparation of Antibiotic Solutions: the Antibiotics Penicillin G and Oxytetracyclin hydrochloride from Sigma-Aldrich (St. Louis, Mo.) were used in this study. 0.01 g each of Penicillin G and Oxytetracyclin were dissolved in 20 ml of TSYEB.
(§5) The antibiotic solutions of Penicillin G and Oxytetracyclin were diluted in TSYEB (1:1) starting at a concentration of 0.05% (w/v) and diluted to 2.44×10^−5% (w/v).
(§6) Microplate assay procedure: Flat bottom 96 well sterile microtiter plates with lid to prevent cross contamination (Sarstedt, Nümbrecht, Germany) were used for the study. Each 96 well microtiter plate supported one row of wells containing the medium alone (sterility and negative control). Three rows from the first row of wells contained 1:1 dilutions of test organisms (bacterial controls equivalent to 10^5 cfu/ml in the left most well to 10^2 cfu/ml in the right most well) and the polyphenol solution from molasses highest to the lowest concentration (1% to 0.0005 w/v). Each of the combinations of polyphenol solution and bacterial cells were done in triplicate measurements. The next three rows of wells contained the same number of bacterial dilutions but the polyphenol solution was from the lowest to the highest concentration (0.0005% to 1% w/v). Each of the combinations of polyphenol solution and bacterial cells were done in triplicate measurements. The remaining row contained the same number of bacterial dilutions with growth media and polyphenol solution and was called the positive control. Replicates (n=6) of the positive control with no polyphenol solution was run on a separate plate for test organisms. Each 300 μl well contained 50 μl of inoculum, 150 μL of polyphenol solution. Each negative or sterility control well contained 200 μl of TSYEB broth. Each positive control well contained 50 μl of inoculum, 150 μl of TSYEB broth.
(§7) Penicillin G and Oxytetracyclin hydrochloride were used as reference standards to determine the sensitivity of test organisms and to compare the antimicrobial activity of the polyphenol solution with that of the antibiotics.
(§8) Optical density (OD) was determined in a spectrophotometer Sunrise-Basic Tecan (Grödig, Austria) at 540 nm. OD was determined prior to incubation and represents the spectrophotometric reading at time zero (T0). Plates were placed in an incubator at 37° C. and incubated for 22 h. Streptococcus mutans was incubated at 37° C. for 22 and 44 h. The solutions in the plates were mixed using a multichannel pipette to prevent clumping prior to reading the OD in the spectrophotometer after 22 h (T22).
(§9) Analysis of results: The calculations for Percent Inhibition were based on the study by Casey et al. 2004; Patton et al. 2006. […]

[2] = test system: Proteus vulgaris ACM 4730; settings: 37° C., 22 h; for MIC0: highest concentration with no inhibition of growth; for MIC100: lowest concentration giving 100% inhibition
Method: as §1, §2, §3, §4, §5, §6, §7, §8, §9

[3] = test system: Staphylococcus aureus strain 6571; settings: 37° C., 22 h; for MIC100: lowest concentration giving 100% inhibition
Method: as §1, §2, §3, §4, §5, §6, §7, §8, §9

[4] = listed as oxytetracyclin, hydrochloride

Row | MIC100 ([1]; hydrochloride) | MIC100 [1, 4] | MIC0 [2] | MIC100 [2] | MIC100 ([3]; hydrochloride) | MIC100 [3, 4] | MIC100 [1] | MIC0 ([3]; highest concentration with no inhibition of growth) | MIC100 [3] | Compound
1 | <2.44 × 10^−5 % w/v | 2.44×10^−5 % w/v | 2.44 × 10^−5 % w/v | 7.88 × 10^−4 % w/v | <2.44 × 10^−5 % w/v | 2.44×10^−5 % w/v | – | – | – | CN(C)[C@@H]1C(O)=C(C(N)=O)C(=O)[C@@]2(O)C(O)=C3C(=O)c4c(O)cccc4[C@@](C)(O)[C@H]3[C@H](O)[C@@H]12.Cl [Oxytetracylin, Oxytetracyclin hydrochloride]
2 | – | – | 4.88 × 10^−5 % w/v | 7.81 × 10^−4 % w/v | – | – | <2.44 × 10^−5 % w/v | <2.44 × 10^−5 % w/v | 9.77 × 10^−5 % w/v | CC1(C)S[C@@H]2[C@H](NC(=O)Cc3ccccc3)C(=O)N2[C@H]1C(=O)O [Penicillin G]
